Where two headings read alike, the source gives them in different places.
Key:
pancreatic cancer = settings: cited from earlier work; for tumor volume over time: mice, repeated injections, compared with control group curve CRTL; for effect on pancreatic cancer cells/tumors in mice: reported by Donadelli, high dosages of CB1 ligand
[1] = War veterans with PTSD given cannabinoid infused chocolates; assay type: in vivo, human; settings: THC alone
Experimental: In a separate set of observations and tests, war veterans suffering from post-traumatic stress disorder (PTSD) were observed purchasing large amounts of un-tested hashish from local dispensaries on sale days. After observing this, samples of this hashish were tested. […] Veterans suffering from PTSD received cannabinoid infused chocolates with controlled dosages. This process identified that chocolates infused with 44 mg of THC and 4 mg of CBD were effective in treating these veterans PTSD. Information reported by veterans identified that many of them were also suffering from pain and had been consuming opiates to combat the pain. The opiates that these veterans were taking reportedly exacerbated PTSD symptoms. […] Patients of Laguna Honda Hospital in California were also provided medications that included both THC and CBD and reported benefit.

| Structure (SMILES) | tumor volume over time (pancreatic cancer) | effect on pancreatic cancer cells/tumors in mice (pancreatic cancer) | effect on pancreatic cancer cells/tumors in mice (pancreatic cancer; listed as Rimonabant) | benefit when treating pain combined with PTSD, versus combined THC/CBD medication [1] | psychotic side effects associated with PTSD [1] |
| --- | --- | --- | --- | --- | --- |
| Nc1ccn([C@@H]2O[C@H](CO)[C@@H](O)C2(F)F)c(=O)n1 [Gemcitabine] | grew at even a slower rate |  |  |  |  |
| Cc1c(C(=O)NN2CCCCC2)nn(-c2ccc(Cl)cc2Cl)c1-c1ccc(Cl)cc1 [SR1, Rimonabant] | grew at a slower rate | reducing pancreatic cancer tumors | shrunk pancreatic cancer cells |  |  |
| CCCCCc1cc(O)c2c(c1)OC(C)(C)[C@@H]1CCC(C)=C[C@@H]21 [THC, tetrahydrocannabinol] |  |  |  | either not effective or provided limited benefits | increased psychotic side effects |
